According to the supplement of paper PMC12533247:

How the values were obtained:
[1] = tested on: HSV-1 K26-GFP infected primary human skin cells; experiment: % change of HSV-1 GFP signal vs untreated infected cells; higher = less antiviral inhibition; conditions: cell type: primary dermal fibroblasts, time (h post infection): 48
Description: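 2D primary donor-derived dermal fibroblasts infected with GFP-HSV-1 K26 at MOI 1, treated 1 h later with compound dilutions and read at 48 hpi on IncuCyte. GFP integrated intensity is normalised to mock-infected and untreated infected wells (% change; -100 = full inhibition).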

[2] = tested on: HSV-1 K26-GFP infected 3D skin equivalent; experiment: % activity on HSV-1 GFP signal (0 = infected DMSO control, -100 = uninfected control); higher = higher signal (negative = inhibition / toxicity); conditions: time (h post infection): 48
Description: (§1)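 Triplicate dose-response (0.04 to 10 uM) of 11 top compounds in 3D bioprinted skin equivalents (submerged and ALI models) infected with GFP-HSV-1 K26 at MOI 0.1 and fixed at 48 hpi. GFP (virus) and tdTomato (fibroblast viability) signals are normalised to per-plate controls.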

[3] = tested on: HSV-1 K26-GFP infected 3D skin equivalent; experiment: % change of tdTomato fibroblast signal relative to infected DMSO control; higher = higher signal (negative = inhibition / toxicity); conditions: time (h post infection): 48
Description: as §1

[4] = tested on: HSV-1 K26-GFP infected primary human skin cells; experiment: % change of HSV-1 GFP signal vs untreated infected cells; higher = less antiviral inhibition
Description: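 2D primary donor-derived keratinocytes (read at 20 hpi) and donor-matched dermal fibroblasts (read at 48 hpi) infected with GFP-HSV-1 K26 at MOI 1 and treated 1 h later with compound dilutions. IncuCyte GFP integrated intensity is normalised by subtracting mock-infected wells and dividing by untreated infected wells, shown as % change (-100 = full inhibition).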

CC1(C)CC(=O)c2c(C(F)(F)F)nn(-c3ccc(C(N)=O)c(N[C@H]4CC[C@H](O)CC4)c3)c2C1 [SNX-2112]
Conditions | % activity on HSV-1 GFP signal [%] | % change of HSV-1 GFP signal [%] | % change of tdTomato fibroblast signal [%]
[1], 0.001 µM, donor: 3 | – | 3.58 | –
[1], 0.001 µM, donor: 4 | – | 7.21 | –
[1], 0.003 µM, donor: 3 | – | 2.41 | –
[1], 0.003 µM, donor: 4 | – | 7.68 | –
[1], 0.0091 µM, donor: 3 | – | 3.09 | –
[1], 0.0091 µM, donor: 4 | – | 10 | –
[1], 0.0274 µM, donor: 3 | – | -21.5 | –
[1], 0.0274 µM, donor: 4 | – | -8.2 | –
[1], 0.0823 µM, donor: 3 | – | -87.9 | –
[1], 0.0823 µM, donor: 4 | – | -77.6 | –
[1], 0.2469 µM, donor: 3 | – | -98.67 | –
[1], 0.2469 µM, donor: 4 | – | -98.8 | –
[1], 0.7407 µM, donor: 3 | – | -99.34 | –
[1], 0.7407 µM, donor: 4 | – | -99.59 | –
[1], 2.2222 µM, donor: 3 | – | -99.32 | –
[1], 2.2222 µM, donor: 4 | – | -99.73 | –
[1], 6.6667 µM, donor: 3 | – | -99.47 | –
[1], 6.6667 µM, donor: 4 | – | -99.66 | –
[1], 20 µM, donor: 3 | – | -99.48 | –
[1], 20 µM, donor: 4 | – | -99.71 | –
[2], 0.041152 µM, model: ALI | -92.8 | – | –
[2], 0.041152 µM, model: submerged | -58.7 | – | –
[2], 0.123457 µM, model: ALI | -99.7 | – | –
[2], 0.123457 µM, model: submerged | -81.7 | – | –
[2], 0.37037 µM, model: ALI | -98.9 | – | –
[2], 0.37037 µM, model: submerged | -98.1 | – | –
[2], 1.111111 µM, model: ALI | -103 | – | –
[2], 1.111111 µM, model: submerged | -101 | – | –
[2], 3.33333 µM, model: ALI | -98.4 | – | –
[2], 3.33333 µM, model: submerged | -105 | – | –
[2], 10 µM, model: ALI | -107 | – | –
[2], 10 µM, model: submerged | -102 | – | –
[3], 0.041152 µM, model: ALI | – | – | 0.975
[3], 0.041152 µM, model: submerged | – | – | -4.63
[3], 0.123457 µM, model: ALI | – | – | -7.26
[3], 0.123457 µM, model: submerged | – | – | -2.18
[3], 0.37037 µM, model: ALI | – | – | -17.9
[3], 0.37037 µM, model: submerged | – | – | -23.3
[3], 1.111111 µM, model: ALI | – | – | -33.5
[3], 1.111111 µM, model: submerged | – | – | -52.2
[3], 3.33333 µM, model: ALI | – | – | -36.3
[3], 3.33333 µM, model: submerged | – | – | -55
[3], 10 µM, model: ALI | – | – | -32.3
[3], 10 µM, model: submerged | – | – | -50.9

% change of HSV-1 GFP signal [%], [4]
Conditions | 0.001 µM | 0.003 µM | 0.0091 µM | 0.0274 µM | 0.0823 µM | 0.2469 µM | 0.7407 µM | 2.2222 µM | 6.6667 µM | 20 µM
cell type: primary dermal fibroblasts, donor: 5, time (h post infection): 48 | – | -7.73 | -15.6 | -26.2 | -67.5 | -95.5 | -98.7 | -98.8 | -99.29 | -98.8
cell type: primary keratinocytes, donor: 3, time (h post infection): 20 | 9.13 | 13.4 | 18.9 | 18.3 | -27.7 | -93.6 | -99.06 | -99.56 | -99.47 | -99.7
cell type: primary keratinocytes, donor: 4, time (h post infection): 20 | 9.33 | 1.99 | -3 | -5.23 | -58 | -98.23 | -99.906 | -100.1 | -100.02 | -100
cell type: primary keratinocytes, donor: 5, time (h post infection): 20 | 8.24 | -1.8 | -0.244 | -15.1 | -81.52 | -98.96 | -99.957 | -99.916 | -99.948 | -99.936

CC(=O)O[C@H]1C[C@H](O[C@H]2[C@@H](O)C[C@H](O[C@H]3[C@@H](O)C[C@H](O[C@H]4CC[C@@]5(C)[C@H](CC[C@@H]6[C@@H]5C[C@@H](O)[C@]5(C)[C@@H](C7=CC(=O)OC7)CC[C@]65O)C4)O[C@@H]3C)O[C@@H]2C)O[C@H](C)[C@H]1O[C@@H]1O[C@H](CO)[C@@H](O)[C@H](O)[C@H]1O [Lanatoside C]
Conditions | % activity on HSV-1 GFP signal, [2] [%] | % change of tdTomato fibroblast signal, [3] [%]
0.041152 µM, model: ALI | -34.1 | 2.37
0.041152 µM, model: submerged | -5.47 | -1.16
0.123457 µM, model: ALI | -95.2 | 5.13
0.123457 µM, model: submerged | -72.7 | -17.7
0.37037 µM, model: ALI | -105 | -2.13
0.37037 µM, model: submerged | -99.6 | -23.6
1.111111 µM, model: ALI | -104 | 0.581
1.111111 µM, model: submerged | -103 | -37.1
3.33333 µM, model: ALI | -104 | -5.14
3.33333 µM, model: submerged | -104 | -52.9
10 µM, model: ALI | -99.5 | -4.98
10 µM, model: submerged | -107 | -56.04

% change of HSV-1 GFP signal [%], [4]
Conditions | 0.001 µM | 0.003 µM | 0.0091 µM | 0.0274 µM | 0.0823 µM | 0.2469 µM | 0.7407 µM | 2.2222 µM | 6.6667 µM | 20 µM
cell type: primary dermal fibroblasts, donor: 5, time (h post infection): 48 | -2.98 | -9.39 | -4.44 | -5.88 | -21.6 | -99.19 | -99.81 | -99.972 | -99.993 | -99.985
cell type: primary keratinocytes, donor: 3, time (h post infection): 20 | 4.49 | 6.12 | -2.17 | 7.86 | -16.9 | -96 | -99.91 | -99.948 | -99.8 | -99.941
cell type: primary keratinocytes, donor: 4, time (h post infection): 20 | -0.192 | -0.172 | -18.5 | -9.65 | -38.4 | -79.3 | -100.1 | -100.1 | -100.1 | -100.07
cell type: primary keratinocytes, donor: 5, time (h post infection): 20 | 12.3 | 12.4 | 10 | -3.35 | -66 | -99.66 | -99.948 | -99.893 | -99.85 | -99.904
